Assay results published in patent publication US20100196273A1, “NOVEL AGENT FOR IN VIVO PET IMAGING OF TUMOR PROLIFERATION” (Board of Regents, University of Texas System, priority 2007, published 2010).

Tests used:
[1] = tested on: Colo205 human colon cancer tumor xenografts; assay: micro-PET imaging of tumor proliferative activity, Colo205 colon cancer xenografts; format: in vivo, nude mice; conditions: 3.7 MBq via tail vein, 2 h post-injection
Protocol: The radiotracers, [^18F]-FLT, [^18F]-D-FMAU and [^18F]-L-FMAU, were synthesized according literature methods in high specific activity. Human colon cancer cells, Colo205 were used to grow tumor xenografts in nude mice. Four nu/nu mice were injected (s.c.) with 3×10^6 cells onto the shoulder. When tumors were approximately 1 cm in diameter, PET imaging with [^18F]-FLT, [^18F]-D-FMAU [^18F]-L-FMAU were performed on three consecutive days using one tracer at a time. Each animal received 3.7 MBq of radiotracer via the tail vein, then dynamic imaging was performed using micro-PET up to 2 hours of post-injection.
However, tumor-to muscle ratio of [^18F]-FLT accumulation was lower than that of [^18F]-D-FMAU and [^18F]-L-FMAU. [^18F]-L-FMAU had higher uptake and tumor/muscle ratio compared to the D-[^18F]-FMAU, which is probably due to higher resistance to metabolic degradation.

[2] = tested on: H441 (rapidly growing) human NSCLC tumor xenografts; assay: microPET imaging of tumor proliferative activity, H441 NSCLC xenografts; format: in vivo, nude mice; conditions: 3.7 MBq via tail vein, 2 h post-injection
Protocol: (§1) All radiotracers were synthesized following literature methods. Two human NSCLC cell lines, H441 (rapidly growing) and H3255 (slow growing) were used to grow (s.c.) tumor xenografts in nude mice. Eight nu/nu mice were injected with 3×10^6 cells (H3255) onto right shoulder, and 3 weeks later, 3×10^6 cells (H441) were injected onto opposite shoulder. When tumors grew approximately 1 cm in diameter, PET imaging with [^18F]-FLT, [^18F]-D-FMAU [^18F]-L-FMAU were performed on three consecutive days. Each animal received 3.7 MBq of radiotracer via the tail vein, then dynamic scan was performed using micro-PET up to 2 hours of post-injection.
(§2) Tumor uptake and tumor-to-muscle (T/M) ratios of [^18F]-FLT, [^18F]-D-FMAU and [^18F]L-FMAU for different tumors are summarized in Table 1. […] On the other hand, tumor-to muscle ratio of [^18F]-FLT accumulation was higher than that for [^18F]-D-FMAU and [^18F]-L-FMAU.

[3] = tested on: H3255 (slow growing) human NSCLC tumor xenografts; assay: microPET imaging of tumor proliferative activity, H3255 NSCLC xenografts; format: in vivo, nude mice; conditions: 3.7 MBq via tail vein, 2 h post-injection
Protocol: as §1, §2

[4] = tested on: human immunodeficiency virus; conditions: reported, Liu et al. 1998; cited from earlier work
hepatitis B virus (HBV) = conditions: reported, Liu et al. 1998; cited from earlier work
Epstein-Barr virus = conditions: reported, Liu et al. 1998; cited from earlier work
[5] = reported, Liu et al. 1998; cited from earlier work

Structure (SMILES)	Tumor uptake % ID/g [1] [% ID/g]	tumor-to-muscle (T/M) ratio [1]	Tumor uptake % ID/g [2] [% ID/g]	tumor-to-muscle (T/M) ratio [2]	Tumor uptake % ID/g [3] [% ID/g]	tumor-to-muscle (T/M) ratio [3]	antiviral activity against human immunodeficiency virus [4]	antiviral activity against hepatitis B virus (hepatitis B virus (HBV))	antiviral activity against Epstein-Barr virus (Epstein-Barr virus)	cytotoxicity [5]
Cc1cn([C@@H]2O[C@H](CO)[C@@H](O)[C@@H]2[18F])c(=O)[nH]c1=O [[^18F]-D-FMAU]	2.37 ± 0.58	1.95 ± 0.37	7.74 ± 1.39	3.37 ± 1.19	4.49 ± 1.08	1.96 ± 0.74				
Cc1cn([C@H]2O[C@@H](CO)[C@H](O)[C@H]2[18F])c(=O)[nH]c1=O [[^18F]-L-FMAU, 2′ deoxy-2′-[^18F]-fluoro-5-methyl-1-β-L-arabinofuranosyluracil]	2.93 ± 0.75	2.85 ± 0.89	3.13 ± 1.11	4.15 ± 1.82	1.38 ± 0.81	1.62 ± 0.50				
Cc1cn([C@H]2O[C@@H](CO)[C@H](O)[C@H]2F)c(=O)[nH]c1=O [L-FMAU, 2′-Deoxy-2′-fluoro-5-methyl-1-β-L-arabinofuranosyl-uracil]							not human immunodeficiency virus	potential antiviral activities	potential antiviral activities	low cytotoxicity
Cc1cn([C@H]2C[C@H]([18F])[C@@H](CO)O2)c(=O)[nH]c1=O [[^18F]-FLT, [^18F]-3′-deoxy-3′-fluorothymidine]	5.20 ± 1.32	1.51 ± 0.61	5.10 ± 1.45	12.94 ± 4.38	0.57 ± 0.33	1.50 ± 0.90				
